Reference: patent publication US9877956B2, “Antiviral compounds and methods of use thereof” (Trana Discovery, Inc., priority 2014, dated 2018)
Where “and” joins values, the source holds several entries; their conditions need not be identical. Identical values can stand only once.

What was measured:
Assay type in all cases: cell-based
HIV-1 92/HT/599 = HIV-1 92/HT/599 replication in human PBMCs, reverse transcriptase in culture supernatants (RLU)
Protocol: (§1) In these studies, PHA-P stimulated PBMCs from three donors were pooled together and re-suspended in fresh tissue culture medium at 1×10^6 cells/mL and plated in the interior wells of a 96 well round bottom microplate at 50µl/well. A 100µL volume of 9 concentrations of compound serially diluted were transferred to the round-bottom 96 well plate containing the cells in triplicate. Fifty microliters (µL) of HIV-1 at a pre-determined dilution was added. Each plate contained cell control wells and virus control wells in parallel with the experimental wells. After 7 days in culture, efficacy was evaluated by measuring the reverse transcriptase in the culture supernatants and the cells were stained with the tetrazolium dye XTT to evaluate cytotoxicity.

[1] = Cytotoxicity in human PBMCs (XTT); conditions: PHA-P stimulated PBMCs pooled from three donors; human PBMCs, XTT
Protocol: as §1

HUMAN PBMCS = assay: Cytotoxicity in human PBMCs (XTT); conditions: for TOXICITY VALUES (XTT - O.D. @ 450/650 nm), SAMPLE: individual samples
Protocol: as §1

EC50 (HIV-1 92/HT/599; Human immunodeficiency virus 1, PBMC, read-out: EC50 (EC 50%), HIV-1 92/HT/599, human PBMCs): < 3 nM
Structure (SMILES): Cc1cn([C@H]2C[C@H](N=[N+]=[N-])[C@@H](CO)O2)c(=O)[nH]c1=O [AZT, Zidovudine, reference compound]
% Virus Control (HIV-1 92/HT/599; 0.003 μM): 28.53% | Antiviral Test Values Mean RLU (HIV-1 92/HT/599; 0.003 μM): 5503.7 RLU | % Virus Control (HIV-1 92/HT/599; 0.01 μM): 10.36% | Antiviral Test Values Mean RLU (HIV-1 92/HT/599; 0.01 μM): 1999.0 RLU | % Virus Control (HIV-1 92/HT/599; 0.032 μM): 13.16% | Antiviral Test Values Mean RLU (HIV-1 92/HT/599; 0.032 μM): 2538.7 RLU | % Virus Control (HIV-1 92/HT/599; 0.32 μM): 0.99% | Antiviral Test Values Mean RLU (HIV-1 92/HT/599; 0.32 μM): 190.7 RLU | % Virus Control (HIV-1 92/HT/599; 1 μM): 0.56% | Antiviral Test Values Mean RLU (HIV-1 92/HT/599; 1 μM): 112.7 RLU | EC 25% (HIV-1 92/HT/599; HIV-1 92/HT/599, human PBMCs): <3 nM | EC 95% (HIV-1 92/HT/599; HIV-1 92/HT/599, human PBMCs): 99 nM | CC50 at 7 days [1]: > 1000 nM | % Cell Viability (HUMAN PBMCS; 0.003 μM): 114.74% | TOXICITY VALUES (XTT - O.D. @ 450/650 nm), SAMPLE (HUMAN PBMCS; 0.003 μg/ml (so in the source)): 1.2555 O.D. and 1.2949 O.D. and 1.3058 O.D. | % Cell Viability (HUMAN PBMCS; 0.01 μM): 123.74% | TOXICITY VALUES (XTT - O.D. @ 450/650 nm), SAMPLE (HUMAN PBMCS; 0.01 μg/ml (so in the source)): 1.2369 O.D. and 1.6369 O.D. | % Cell Viability (HUMAN PBMCS; 0.032 μM): 111.47% | TOXICITY VALUES (XTT - O.D. @ 450/650 nm), SAMPLE (HUMAN PBMCS; 0.032 μg/ml (so in the source)): 1.2990 O.D. and 1.2908 O.D. and 1.1569 O.D. | % Cell Viability (HUMAN PBMCS; 0.32 μM): 92.20% | TOXICITY VALUES (XTT - O.D. @ 450/650 nm), SAMPLE (HUMAN PBMCS; 0.32 μg/ml (AZT table)): 0.9607 O.D. and 0.9984 O.D. and 1.1398 O.D. | % Cell Viability (HUMAN PBMCS; 1 μM): 81.66% | TOXICITY VALUES (XTT - O.D. @ 450/650 nm), SAMPLE (HUMAN PBMCS; 1 μg/ml (AZT table)): 1.1224 O.D. and 0.5742 O.D. and 1.0479 O.D. | TC 25% (HUMAN PBMCS; human PBMCs, XTT): >1000 nM | TC 95% (HUMAN PBMCS; human PBMCs, XTT): >1000 nM
